# Settings: buffer; pH 7.4; 200.0 µM
row,SMILES,solubility kinetic
1,CCCn1c(N)c(N(CCOC)C(=O)CSc2c(Cl)cccc2Cl)c(=O)[nH]c1=O,0.053 mg/mL
2,Cc1ccc(S(=O)(=O)N2CCOCC2)cc1NC(=O)COC(=O)c1ccc(Br)cc1,0.0053 mg/mL
3,O=C(O)CSCC(=O)N1CCN(Cc2ccc3c(c2)OCO3)CC1,> 0.0529 mg/mL
4,COc1ccc(-c2noc(=O)n2Cc2ccc(F)cc2Cl)cc1,0.0035 mg/mL
5,Cn1cccc1C(=O)Nc1ccc(N2CCOCC2)cc1,> 0.0428 mg/mL
6,NS(=O)(=O)c1ccc(NC(=O)/C=C/c2cccc(Cl)c2)cc1,0.0014 mg/mL
7,CC(CN1CCCCC1)OC(=O)COc1ccc(Cl)cc1.Cl (stereo unspecified),> 0.0522 mg/mL
8,CCN(CC(=O)NCc1cccs1)C(=O)c1cccc(S(=O)(=O)N2CC(C)OC(C)C2)c1 (stereo unspecified),> 0.0719 mg/mL
9,COc1ccc(Cc2nc3ccccc3n2C)cc1.Cl,0.0423 mg/mL
10,CC(CN1CCCC1)OC(=O)c1ccc(Cl)cc1.Cl (stereo unspecified),> 0.0456 mg/mL
11,COc1ccc(CCNC(=O)c2cnc3ccccc3n2)cc1,0.0402 mg/mL
12,ONC(=Nc1ccccc1Cl)c1ccccc1Cl,> 0.0422 mg/mL
13,O=C(Nc1nonc1-c1ccc(F)cc1)c1ccco1,> 0.041 mg/mL
14,Cc1ccc(C(=O)COc2nc(C)nc3ccccc23)cc1,0.0043 mg/mL
15,Cc1ccnc(SCc2ccc(C(=O)O)cc2)n1,> 0.039 mg/mL
16,CC(C)[C@H](NC(=O)NC1CCN(Cc2ccccc2)CC1)C(=O)O,0.0198 mg/mL
17,Cc1ccc(C(=O)N2CCN(C(=O)C3CCCO3)CC2)cc1 (stereo unspecified),> 0.0454 mg/mL
18,Fc1ccc2[nH]c3c(NCc4ccccc4)ncnc3c2c1,0.0034 mg/mL
19,COc1cccc(/C=C/C(=O)OCC(=O)NCCC2=CCCCC2)c1OC,0.0069 mg/mL
20,NC(=O)CN(C/C=C/c1ccccc1)C/C=C/c1ccccc1,0.0074 mg/mL
21,CCc1ccc(N2C(=O)CN(Cc3cccs3)C2=S)cc1,< 0.0003 mg/mL
22,COc1ccc(CCNC(=O)c2cccnc2Cl)cc1OC,> 0.0481 mg/mL
23,Cc1ccc(-n2c(C)c(C)c3c(NCCN(C)C)ncnc32)cc1,0.0374 mg/mL
24,CCOc1ccc(N)cc1OC.Cl,> 0.0306 mg/mL
25,CSc1ncccc1C(=O)Nc1ccccc1N1CCOCC1,> 0.0494 mg/mL

row,SMILES,solubility kinetic
1,COc1cccc(-c2nc(NC3CCCC3)c3ccccc3n2)c1O,< 0.0002 mg/mL
2,COc1ccc([N+](=O)[O-])cc1NC(=O)C(C)OC(=O)Cc1ccc(OC)c(OC)c1 (stereo unspecified),0.0311 mg/mL
3,COc1cc(N2C(=O)CSC2=S)cc(OC)c1OC,0.041 mg/mL
4,CN(C(=O)COc1ncnc2ccccc12)C1CCCCC1,0.039 mg/mL
5,CCOc1ncccc1C(=O)OCC(=O)NC1CCCCC1,0.0342 mg/mL
6,CC(C)(C)c1ccc(NC(=O)CON=C(N)c2ccccc2)cc1,0.0038 mg/mL
7,N#Cc1ccc(NC(=S)NCCN2CCOCC2)cc1,> 0.0436 mg/mL
8,O=C(NC(=S)Nc1ccccc1Br)c1ccco1,0.0031 mg/mL
9,C=CCCOc1ccccc1C(N)=O,0.0258 mg/mL
10,Cc1cc(=O)oc2cc(OCC(O)Cn3ccnc3)ccc12 (stereo unspecified),> 0.045 mg/mL
11,CCOc1ccc(NC(=O)NC(C)c2ccc3c(c2)OCO3)cc1 (stereo unspecified),0.0019 mg/mL
12,O=C(COC(=O)C1CC(=O)N(Cc2ccccc2)C1)Nc1cccc([N+](=O)[O-])c1 (stereo unspecified),> 0.0596 mg/mL
13,O=C(Nc1ccc2c(c1)OCCO2)C1CC(O)CN1C(=O)Nc1ccccc1 (stereo unspecified),> 0.0575 mg/mL
14,C#CCN(C)CCCOc1ccc(Cl)cc1Cl.Cl,0.0087 mg/mL
15,O=C(NCc1cccc(F)c1)C1CCC(=O)N(C2CC2)C1 (stereo unspecified),> 0.0436 mg/mL
16,Cc1ccc(C)c2c1N(Cc1ccccc1)C(=O)C21OCCO1,< 0.0007 mg/mL
17,O=C(COC(=O)/C=C/c1ccc(C(F)(F)F)cc1)NCc1ccco1,0.0357 mg/mL
18,Cc1c(C(=O)N2CCN(S(=O)(=O)c3ccccc3)CC2)oc2ccc(Br)cc12,0.0068 mg/mL
19,COc1cc2ccccc2cc1C(=O)NC1CCC(C)CC1 (stereo unspecified),0.005 mg/mL
20,Cc1cccc(NC(=O)C(C)SCc2ccccc2)c1 (stereo unspecified),0.0279 mg/mL
21,C=CCn1c(C(C)(C)C)nc2ccccc21,0.0246 mg/mL
22,Cc1cccc(CNC(=O)C2CCC(=O)N(C3CCCCCC3)C2)c1 (stereo unspecified),> 0.0514 mg/mL
23,Cl.N=c1sccn1Cc1ccccc1F,> 0.0367 mg/mL
24,OCC1CCCCN1C(=S)Nc1ccc(Cl)cc1Cl (stereo unspecified),> 0.0479 mg/mL
25,O=C(O)CCCCCNC(=O)c1ccc(C(=O)NCCCCCC(=O)O)cc1,0.0539 mg/mL

row,SMILES,solubility kinetic
1,O=C(c1c(F)cccc1F)N1CCN(CCOc2ccccc2)CC1,> 0.052 mg/mL
2,C=CCn1cnc2scc(-c3ccc(OC)cc3)c2c1=O,0.039 mg/mL
3,Brc1ccc(-c2ncc3ccccn23)cc1,0.0293 mg/mL
4,Cc1cc(C)nc(SCC(=O)N/N=C/c2cccnc2)n1,> 0.0452 mg/mL
5,CCc1ccc2[nH]c(C(=O)Nc3ccc(C)c(F)c3)cc2c1,0.0009 mg/mL
6,COc1ccccc1NCC(=O)c1ccc(Cl)cc1,0.0047 mg/mL
7,O=C(Nc1cccc2ccccc12)N1CCN(c2ncccn2)CC1,> 0.05 mg/mL
8,Cc1ccc2nc(-c3ccccc3)cc(C(=O)N3CC(C)OC(C)C3)c2c1 (stereo unspecified),0.0491 mg/mL
9,O=C1CCC(=O)N1c1ccc(-c2nc3sc4c(c3c(=O)o2)CCC4)cc1,0.001 mg/mL
10,c1ccc2nc3c(cc2c1)CCCCC3,0.0034 mg/mL
11,Cc1cc(C)nc(Nc2cccc3ccccc23)n1,0.0187 mg/mL
12,Cc1cccn2c(=O)nc(SCC(=O)NCc3ccco3)nc12,> 0.0496 mg/mL
13,Cc1ccc(C2=NOC(=O)/C2=C\c2ccccc2)cc1,0.0337 mg/mL
14,Cc1ccc(OCC(=O)Nc2ccccc2F)cc1C,0.0032 mg/mL
15,Cc1cccc(C)c1NC(=O)CN(C)C(=O)C1CC1C (stereo unspecified),> 0.0412 mg/mL
16,NC(=O)CN1C(=O)C(=O)N(Cc2ccccc2Cl)C1=O,> 0.0444 mg/mL
17,O=C1C(Cc2ccc(O)cc2)NC(=S)N1C1CCCCC1 (stereo unspecified),0.0449 mg/mL
18,O=C(Nc1nccs1)c1cncc(Br)c1,0.0204 mg/mL
19,COc1ccccc1NC(=O)C1CC(C(C)C)OC1=O (stereo unspecified),0.0383 mg/mL
20,O/N=C/c1cc2ccccc2n1Cc1ccccc1F,0.0005 mg/mL
21,CC(NC(=O)CCc1ccccc1)c1ccc2c(c1)OCO2 (stereo unspecified),0.042 mg/mL
22,CCC(C)NC(=O)CN1C(=O)NC2(CCOc3ccccc32)C1=O (stereo unspecified),> 0.0497 mg/mL
23,CC(C#N)OC(=O)c1cccnc1SCC(=O)Nc1ccc2c(c1)OCO2 (stereo unspecified),0.0208 mg/mL
24,Cc1cc(N2CCOCC2)nc2ccc(NC(=S)N3CCCCC3C)cc12 (stereo unspecified),0.0415 mg/mL
25,CC(=O)Nc1ccc(C(=O)OCCc2ccccc2)cc1,0.0388 mg/mL

row,SMILES,solubility kinetic
1,COc1cc2ccccc2cc1C(=O)Nc1ccc(O)cc1,0.0008 mg/mL
2,COc1cc(OC)cc(C(=O)NCC(=O)OC2CCCCC2=O)c1 (stereo unspecified),> 0.0503 mg/mL
3,N#Cc1cnn2cc(CCN3CCOCC3)c(-c3ccc(F)cc3)nc12,> 0.0527 mg/mL
4,CC(C)c1c(O)nc(SCCOc2ccc(Cl)cc2)[nH]c1=O,0.0447 mg/mL
5,O=C(Nc1ccc2c(c1)COC2=O)c1ccc(Cl)c(Cl)c1,0.0035 mg/mL
6,CCN(CC)C(=O)c1cccc(NC(=O)C2=COCCO2)c1,> 0.0457 mg/mL
7,O=C(NCc1ccc2c(c1)OCO2)c1ccccc1Cl,0.0408 mg/mL
8,Cc1cccc(CN2CCN(c3ccc(Cl)cc3)CC2)c1,0.002 mg/mL
9,COc1ccc(NC(=O)COC(=O)c2ccc3ccccc3n2)c(OC)c1,0.003 mg/mL
10,O=C(/C=C/c1cccc(F)c1)c1ccc(N2CCOCC2)cc1,0.0058 mg/mL
11,O=C(Nc1ccccc1Cl)OC1CN2CCC1CC2 (stereo unspecified),0.0381 mg/mL
12,O=C(NN1CCOCC1)c1ccccc1F,> 0.0336 mg/mL
13,CCOc1ccc(NS(=O)(=O)c2cc(C(=O)NCCN3CCOCC3)ccc2C)cc1,0.0664 mg/mL
14,O=S(=O)(Cc1cc(-c2ccccc2)no1)c1ccccc1,0.0034 mg/mL
15,N#Cc1cc2c(nc1Cl)CCC2,0.0202 mg/mL
16,CN(C)c1ccc(C(=O)OCC(=O)N2CCCC2)cc1,> 0.0415 mg/mL
17,CN(C)c1nc(C#N)nc(N(C)C)n1,0.0223 mg/mL
18,CC1CC(CCN)(c2ccccc2)C(C)CN1C.Cl (stereo unspecified),> 0.0479 mg/mL
19,O=[N+]([O-])c1cccc(S(=O)(=O)NCCCn2ccnc2)c1,> 0.0465 mg/mL
20,CC(C)(C)OC(=O)N1CCC(CNC(=O)c2ccccc2)CC1,> 0.0478 mg/mL
21,CCc1ccc(NC(=S)N2CCCCCCC2)cc1,0.0351 mg/mL
22,Cc1ccnc(NC(=O)c2ccc(Cl)s2)c1,0.0161 mg/mL
23,O=C(Nc1ccccc1F)NC1CCCc2ccccc21 (stereo unspecified),0.002 mg/mL
24,O=C(O)C(Cc1ccc(O)cc1)N1C(=O)c2ccccc2C1=O (stereo unspecified),> 0.0467 mg/mL
25,COc1ccc(Cl)cc1Nc1nc(-c2cccnc2)cs1,< 0.0002 mg/mL

row,SMILES,solubility kinetic
1,COc1ccccc1C(=O)NC(=O)COC(=O)C1CCC1,> 0.0437 mg/mL
2,CCCCN(C(=O)COC(=O)c1ccc(C)s1)c1c(N)n(CCC)c(=O)[nH]c1=O,0.0179 mg/mL
3,O=C(O)c1cc(=O)n(Cc2ccccc2)c(=O)[nH]1,> 0.0369 mg/mL
4,Cc1ccccc1C(=O)NC(=S)NCc1ccccc1,< 0.0003 mg/mL
5,O=C(Nc1nnc(-c2ccco2)o1)c1ccc(N2C(=O)CCC2=O)cc1,> 0.0528 mg/mL
6,O=CN1CCN(c2c([N+](=O)[O-])c(=O)oc3ccccc23)CC1,> 0.0455 mg/mL
7,CCN1CCN(c2nc(-c3ccc(F)cc3)cc(=O)[nH]2)CC1,> 0.0454 mg/mL
8,CCCOc1cccc(C(=O)NCCNC(=O)c2ccc(C)nc2)c1,> 0.0512 mg/mL
9,O=C(COC(=O)c1cccc(Cl)c1)Nc1cccc(S(=O)(=O)NC2=NCCC2)c1,0.0633 mg/mL
10,COc1ccc(C(=O)Nc2ccccc2C(=O)N2CCOCC2)cc1OC,0.0467 mg/mL
11,COc1ccccc1NC(=O)COC(=O)CNC(=O)C1CCCCC1,> 0.0523 mg/mL
12,O=C1Nc2ccccc2O/C1=C\c1ccccc1Br,0.0033 mg/mL
13,CCCNC(=O)c1c(O)c2cccc3c2n(c1=O)CCC3,0.0005 mg/mL
14,CCOP(=O)(OCC)/C(=N/OC(=O)c1cccc([N+](=O)[O-])c1)C(N)=O,0.055 mg/mL
15,CCOC(=O)c1sc(S(C)(=O)=O)c2c1CC(C)(C)C/C2=N/O,> 0.0518 mg/mL
16,Nc1ccccc1-c1nc2ccccc2[nH]c1=O,0.0338 mg/mL
17,Fc1ccc2[nH]c3c(c2c1)CN(C(=S)NCc1ccccc1)CC3,0.005 mg/mL
18,COC(=O)C1=C(C)OC(N)=C(C#N)C12C(=O)Nc1ccccc12 (stereo unspecified),> 0.0467 mg/mL
19,O=C(Cc1ccccc1)Nc1cccc(NC(=O)c2ccccc2)c1,0.0015 mg/mL
20,NC(=O)C12CCCC(Br)(CCC1)C2,0.0362 mg/mL
21,CC(C)Cn1c(SCC(=O)N2CCc3ccccc3C2)nc(O)cc1=O,> 0.056 mg/mL
